# Measurements reported in US20120077794A1, “BIS-PYRIDYLPYRIDONES AS MELANIN-CONCENTRATING HORMONE RECEPTOR 1 ANTAGONISTS” (GLAXSMITHKLINE LLC, priority 2009, published 2012).
# Like-named read-outs stand apart in the source and are kept apart here.
# Molecular target: T1, hMCHR1 (Homo sapiens, UniProt Q99705)
# T1 construct: expressed in transfected cells; host or cells: HEK293
# Experiment: MCHR1 pIC50 Determination FLIPR Assay
# Type: cell-based
# Description: MCHR1 pIC50 Determination FLIPR™ Assay: HEK293 cells stably transfected with hMCHR1 were propagated as adherent cultures at 37° C. in a humidified incubator. Cells were split 1:8 at 90% confluency two times per week. New cell stocks were recovered from storage every two months. Cells were plated in black 384-well plates (Greiner) 24 hours prior to assay at 15,000 cells/well in 50 μL DMEM/F12, 10% FBS, 2 mM I-glutamine. Compounds to be profiled were prepared by making a stock solution at 3×10^−3M in 100% DMSO. The stock solutions were serially diluted 1:4 in 100% DMSO using JANUS (PerkinElmer) liquid handling instrument to allow for an 11 point curve in singlicate. At the time of the assay, the media was removed from the cell plate by aspiration, followed by the addition of 20 μL of loading buffer (Calcium 4 Kit, […]). Following 50 min incubation at 37° C., 10 μL of compound was added to the plates via the FLIPR™ instrument ([…]). The plates were incubated at room temperature for 15 minutes along with an MCH peptide agonist challenge plate. On the FLIPR™, a basal response was collected over 10 seconds followed by the addition of 10 μL of MCH challenge concentration at 4XEC50. Data was collected over 4 minutes and subjected to a nonlinear regression analysis curve fitting program to generate pIC50s.
# [1] = HEK293 cells stably transfected with hMCHR1, MCH challenge at 4XEC50, at least one experimental run, read-out: IC50 in the FLIPR assay
# T1 sequence (Q99705 whole entry): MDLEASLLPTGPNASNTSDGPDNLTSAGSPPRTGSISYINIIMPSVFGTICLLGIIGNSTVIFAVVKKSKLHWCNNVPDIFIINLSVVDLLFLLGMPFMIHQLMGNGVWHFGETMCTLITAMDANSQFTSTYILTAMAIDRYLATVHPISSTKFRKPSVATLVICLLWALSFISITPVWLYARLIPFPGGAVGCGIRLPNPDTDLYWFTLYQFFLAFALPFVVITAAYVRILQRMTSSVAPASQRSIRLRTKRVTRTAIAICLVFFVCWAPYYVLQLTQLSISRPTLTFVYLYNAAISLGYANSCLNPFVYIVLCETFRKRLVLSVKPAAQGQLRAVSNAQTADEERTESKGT
smiles,measurement,setting,value
O=c1cc(OCc2ccc(Cl)cn2)ccn1-c1ccc(N2CCCNCC2)nc1 [Example 13],IC50,[1],52 nM
CC(C)[C@H]1CN(c2ccc(-n3ccc(OCc4ccc(Cl)cn4)cc3=O)cn2)CCN1C [Example 19],IC50,[1],53 nM
"O=c1cc(OCc2ccc(Cl)cn2)ccn1-c1ccc(N2CCNCC2)nc1 [Example 2, 4-{[(5-chloro-2-pyridinyl)methyl]oxy}-6′-(piperazin-1-yl)-2H-1,3′-bipyridin-2-one]",IC50,"quantity and assay not stated, read-out: unlabelled value in the heading of Example 2",88 nM
"O=c1cc(OCc2ccc(Cl)cn2)ccn1-c1ccc(N2CCC[C@@H]2CO)nc1 [Example 4, 4-{[(5-chloro-2-pyridinyl)methyl]oxy}-6′-{[(2R)-hydroxymethyl]pyrrolidin-1-yl}-2H-1,3′-bipyridin-2-one]",IC50,[1],48 nM
